Test results reported in PubChem BioAssay (NCI).
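Dose response: 5 concentrations. Exposure: 48 h. Format: 96-well plates. Endpoint: linear interpolation; highest concentration if not reached. Definition used: TGI = concentration required for complete inhibition of growth.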

Assays:
Assay in all cases: NCI-60 cell line screen, 48 h
IGROV1 ovarian = tested on: IGROV1 ovarian
ACHN renal = tested on: ACHN renal
HT29 colon = tested on: HT29 colon
OVCAR-3 ovarian = tested on: OVCAR-3 ovarian
MDA-MB-435 = tested on: MDA-MB-435
DU-145 prostate = tested on: DU-145 prostate
HCT-15 colon = tested on: HCT-15 colon
SK-MEL-2 melanoma = tested on: SK-MEL-2 melanoma
MOLT-4 leukemia = tested on: MOLT-4 leukemia
OVCAR-8 ovarian = tested on: OVCAR-8 ovarian
SR leukemia = tested on: SR leukemia

SMILES	TGI (IGROV1 ovarian) [µM]	TGI (ACHN renal) [µM]	TGI (HT29 colon) [µM]	TGI (OVCAR-3 ovarian) [µM]	TGI (MDA-MB-435) [µM]	TGI (DU-145 prostate) [µM]	TGI (HCT-15 colon) [µM]	TGI (SK-MEL-2 melanoma) [µM]	TGI (MOLT-4 leukemia) [µM]	TGI (OVCAR-8 ovarian) [µM]	TGI (SR leukemia) [µM]
CN(C)c1n2c3ccc([N+](=O)[O-])cc3n3c(N(C)C)[n+]4ccccc4c3c2c2cccc[n+]12	> 100	> 100	> 100	> 100	> 100	> 100	> 100	> 100	> 100	> 100	> 100
N#Cc1c(-c2ccccc2)cn(C(=O)c2ccccc2)c1N	> 100	> 100	> 100	> 100	> 100	> 100	> 100	> 100	> 100	> 100	> 100
O=C1c2ccccc2C(=O)c2c1oc1cc(O)c(Cl)cc21	31.3	17	3.89	8.52	3.34	13.5	17.8	7.16	> 62.5	23.4	> 54.6
CCCCCN1C(=O)C(Cc2ccccc2)N=C(c2ccc(O)cc2)c2cc(Cl)ccc21 (centres undefined)	23.9	25.9	25.6	45.1	24.4	30.9	21.2	34.4	26.3	25.8	15.3
COc1ccc(C[C@H]2COC(=O)[C@@H]2Cc2ccc(Br)cc2)cc1OC	> 92.4	> 100	> 100	> 100	55.7	> 84.3	> 100	51.8	61.8	> 100	> 94
C=CC(C)(C)NC(C(=O)N1CCC[C@H]1c1nc(-c2nc(C(=O)OCC=C(C)C)c(C)o2)c(C)o1)C(C)C (some centres undefined)	> 100	> 68.1	> 86.8	> 100	> 72	> 100	> 95.5	> 73.4	> 100	> 100	> 100
CO[P@@]1(=O)O[C@@H](c2ccccc2)[C@H](O)[C@@]1(O)c1ccccc1	> 100	> 100	> 100	> 100	> 100	> 100	> 100	> 100	> 100	> 100	74.7
COc1ccc2nc3c4c(nccc4c2c1)-c1ncccc1C3=O	0.279	0.174	1.14	0.0569	0.148	0.023	0.069	1.43	5.31	6.55	0.0189
COc1cccc(CCn2c(N)c(-c3cc(Cl)cc(Cl)c3)c3ccc([N+](=O)[O-])cc3c2=O)c1	22.7	22.5	> 100	> 100	> 100	> 25.3	> 44.5	> 31.4	> 100	> 100	> 64.8
